Experimental data as given in PubChem BioAssay AID2060904 (Molecular Pharmacology Branch, DTP, NCI, 2025).
pIC50: −log10 of the molar value.

System: 349418-098-R-PDC complex spheroid viability
Test: Anticancer human tumor 349418-098-R-PDC patient-derived lung adenocarcinoma cell line growth inhibition [RAS]
Conditions: for pIC50: curve of first compound; for viability, T/C: stronger effect = lower value
Method in brief: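 Agents were tested in combination matrices in half-log decrements from a top concentration at or near clinical Cmax (10 microM if undetermined). Targets were multi-cell spheroids of tumour lines plus HUVEC and MSC stromal cells.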

[1] = second compound 0.000949 µM, first compound 0.00316 µM
[2] = second compound 0.000949 µM, first compound 0.01 µM
[3] = second compound 0.000949 µM, first compound 0.0316 µM
[4] = second compound 0.000949 µM, first compound 0.1 µM
[5] = second compound 0.003 µM, first compound 0.00316 µM
[6] = second compound 0.003 µM, first compound 0.01 µM
[7] = second compound 0.003 µM, first compound 0.0316 µM
[8] = second compound 0.003 µM, first compound 0.1 µM
[9] = second compound 0.00949 µM, first compound 0.00316 µM
[10] = second compound 0.00949 µM, first compound 0.01 µM
[11] = second compound 0.00949 µM, first compound 0.0316 µM
[12] = second compound 0.00949 µM, first compound 0.1 µM
[13] = second compound 0.03 µM, first compound 0.00316 µM
[14] = second compound 0.03 µM, first compound 0.01 µM
[15] = second compound 0.03 µM, first compound 0.0316 µM
[16] = second compound 0.03 µM, first compound 0.1 µM
[17] = second compound 0.0949 µM, first compound 0.00316 µM
[18] = second compound 0.0949 µM, first compound 0.01 µM
[19] = second compound 0.0949 µM, first compound 0.0316 µM
[20] = second compound 0.0949 µM, first compound 0.1 µM
[21] = second compound 0.3 µM, first compound 0.00316 µM
[22] = second compound 0.3 µM, first compound 0.01 µM
[23] = second compound 0.3 µM, first compound 0.0316 µM
[24] = second compound 0.3 µM, first compound 0.1 µM
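Note: spheroids exposed to compound for seven days before viability readout.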

## Nc1ccn(C2OC(CO)C(O)C2(F)F)c(=O)n1 (stereo not drawn) + CCn1c(-c2cccnc2C(C)OC)c2c3cc(ccc31)N1CCOC(CC(NC(=O)C(C(C)C)N(C)C(=O)C3(F)CCN(C(=O)C#CC(C)(C)N(C)C)CC3)C(=O)N3CCCC(N3)C(=O)OCC(C)(C)C2)C1
Second compound 0.000949 µM
  pIC50: > 8.50
Second compound 0.003 µM
  pIC50: > 8.50
Second compound 0.00949 µM
  pIC50: > 8.50
Second compound 0.03 µM
  pIC50: > 8.50
Second compound 0.0949 µM
  pIC50: > 8.50
Second compound 0.3 µM
  pIC50: > 8.50
[1]
  viability, T/C: 23.6%
[2]
  viability, T/C: 7.06%
[3]
  viability, T/C: 5.46%
[4]
  viability, T/C: 4.18%
Second compound 0.000949 µM, first compound 0.316 µM
  viability, T/C: 4.47%
Second compound 0.000949 µM, first compound 1 µM
  viability, T/C: 3.97%
[5]
  viability, T/C: 22%
[6]
  viability, T/C: 6.17%
[7]
  viability, T/C: 5.46%
[8]
  viability, T/C: 5.26%
Second compound 0.003 µM, first compound 0.316 µM
  viability, T/C: 4.96%
Second compound 0.003 µM, first compound 1 µM
  viability, T/C: 4.2%
[9]
  viability, T/C: 20.5%
[10]
  viability, T/C: 8.01%
[11]
  viability, T/C: 5.62%
[12]
  viability, T/C: 4.89%
Second compound 0.00949 µM, first compound 0.316 µM
  viability, T/C: 6.38%
Second compound 0.00949 µM, first compound 1 µM
  viability, T/C: 3.73%
[13]
  viability, T/C: 19.7%
[14]
  viability, T/C: 6.08%
[15]
  viability, T/C: 4.75%
[16]
  viability, T/C: 5.13%
Second compound 0.03 µM, first compound 0.316 µM
  viability, T/C: 5.14%
Second compound 0.03 µM, first compound 1 µM
  viability, T/C: 3.58%
[17]
  viability, T/C: 19.9%
[18]
  viability, T/C: 7.64%
[19]
  viability, T/C: 4.68%
[20]
  viability, T/C: 4.96%
Second compound 0.0949 µM, first compound 0.316 µM
  viability, T/C: 5.01%
Second compound 0.0949 µM, first compound 1 µM
  viability, T/C: 4.01%
[21]
  viability, T/C: 16.6%
[22]
  viability, T/C: 6.52%
[23]
  viability, T/C: 4.44%
[24]
  viability, T/C: 4.51%
Second compound 0.3 µM, first compound 0.316 µM
  viability, T/C: 5.17%
Second compound 0.3 µM, first compound 1 µM
  viability, T/C: 3.99%

## CC(C)n1nc(-c2ccc3oc(N)nc3c2)c2c(N)ncnc21 + CCn1c(-c2cccnc2C(C)OC)c2c3cc(ccc31)N1CCOC(CC(NC(=O)C(C(C)C)N(C)C(=O)C3(F)CCN(C(=O)C#CC(C)(C)N(C)C)CC3)C(=O)N3CCCC(N3)C(=O)OCC(C)(C)C2)C1
Second compound 0.000949 µM
  pIC50: 8.89
Second compound 0.003 µM
  pIC50: 8.68
Second compound 0.00949 µM
  pIC50: 8.59
Second compound 0.03 µM
  pIC50: 8.54
Second compound 0.0949 µM
  pIC50: 8.85
Second compound 0.3 µM
  pIC50: 8.83
Second compound 0.000949 µM, first compound 0.000316 µM
  viability, T/C: 97.3%
Second compound 0.000949 µM, first compound 0.001 µM
  viability, T/C: 54.3%
[1]
  viability, T/C: 33.3%
[2]
  viability, T/C: 10.8%
[3]
  viability, T/C: 6.42%
[4]
  viability, T/C: 5.48%
Second compound 0.003 µM, first compound 0.000316 µM
  viability, T/C: 91.7%
Second compound 0.003 µM, first compound 0.001 µM
  viability, T/C: 70.3%
[5]
  viability, T/C: 39.7%
[6]
  viability, T/C: 12.8%
[7]
  viability, T/C: 6.14%
[8]
  viability, T/C: 5.04%
Second compound 0.00949 µM, first compound 0.000316 µM
  viability, T/C: 91.2%
Second compound 0.00949 µM, first compound 0.001 µM
  viability, T/C: 82.2%
[9]
  viability, T/C: 42.7%
[10]
  viability, T/C: 13.9%
[11]
  viability, T/C: 6.63%
[12]
  viability, T/C: 5.25%
Second compound 0.03 µM, first compound 0.000316 µM
  viability, T/C: 98.7%
Second compound 0.03 µM, first compound 0.001 µM
  viability, T/C: 81.4%
[13]
  viability, T/C: 47.7%
[14]
  viability, T/C: 16.8%
[15]
  viability, T/C: 6.13%
[16]
  viability, T/C: 5.01%
Second compound 0.0949 µM, first compound 0.000316 µM
  viability, T/C: 90.4%
Second compound 0.0949 µM, first compound 0.001 µM
  viability, T/C: 55.9%
[17]
  viability, T/C: 35.7%
[18]
  viability, T/C: 13.3%
[19]
  viability, T/C: 7.14%
[20]
  viability, T/C: 4.64%
Second compound 0.3 µM, first compound 0.000316 µM
  viability, T/C: 67.4%
Second compound 0.3 µM, first compound 0.001 µM
  viability, T/C: 64.7%
[21]
  viability, T/C: 22%
[22]
  viability, T/C: 10.9%
[23]
  viability, T/C: 6.85%
[24]
  viability, T/C: 4.69%

## CCN1CCN(Cc2ccc(Nc3ncc(F)c(-c4cc(F)c5nc(C)n(C(C)C)c5c4)n3)nc2)CC1
Compound 0.01 µM
  viability, T/C: 59.8% [middle of 4 runs]
Compound 0.1 µM
  viability, T/C: 28.7% [middle of 4 runs]
Compound 0.316 µM
  viability, T/C: 23.5% [middle of 4 runs]
Compound 1 µM
  viability, T/C: 17.6% [middle of 4 runs]
